For one compound, Stability results are on record in ChEMBL document CHEMBL1153802, “Human plasma-mediated hypoxic activation of indolequinone-based naloxone pro-drugs” (Bioorg Med Chem Lett, 2009).

The series relates to Plasma. Kind of series: Prodrug stability in human plasma assessed as […] release under normoxic condition after 24 hrs by HPLC analysis. The class given is ADME, cell-free.

Take `C=CCN1CC[C@]23c4c5ccc(OC(=O)N(C)CCN(C)C(=O)OCc6c7c(n(C(=O)NCCOCCOCCNC(=O)OC(C)(C)C)c6C)C(=O)C=C(OC)C7=O)c4O[C@H]2C(=O)CC[C@@]3(O)[C@H]1C5`: the Stability result was “Unstable”.
